Laboratory results published in patent US20260378560A1, “APPROACHES TO DESIGNING AND PERFORMING COMPRESSED BIOLOGICAL EXPERIMENTS AND SYSTEMS FOR IMPLEMENTING THE SAME” (EXVIVO LABS INC., priority 2023, published 2026).

Experiments:
[1] = tested on: NALM-6; test: ATP-based luminescence cell viability (CellTiter Glo), drug response score, NALM-6; conditions: for DRS from deconvolution: NALM-6, Target compression, 7 Pick 3 pools; for drug response score (DRS): NALM-6, screened individually (Compress: None)
Text: (§1) As part of a screen, a drug could be screened at different concentrations ranging from a lowest concentration to a highest concentration. In such a scenario, multiple data structures may be obtained by the screening platform 210. […] With these multiple data structures, the analysis module 218 can generate a dose-response curve that describes the magnitude of the response of the biological target, as a function of exposure to different concentrations of the drug. Further, the analysis module 218 can calculate a metric that is indicative of the response of the biological target. In the event that the biological target is one of multiple biological targets that are introduced to the pools of drugs, the metric can be used by the screening platform 210 to better understand the relative magnitude of responses. One example of a metric is drug-response score (“DRS”). DRS can be calculated as a continuous function of multiple parameters of the non-linear dose-response curve, including the slope at the half-maximal effective concentration (also called “EC50”) and the top and bottom asymptotes of the dose-response curve. DRS can be calculated as follows: […]
(§2) where y is a continuous function of the variable dose x, a is the maximal response (i.e., the top asymptote of the curve), b is the slope of the curve, c is the IC50 (i.e., half-maximal inhibitory concentration), and d is the minimal response (i.e., the bottom asymptote of the curve). Other examples of metrics include those output by sigmoidal and Hill slide functions that, like DRS, incorporate multiple aspects of the dose-response curve into a continuous function.
(§3) Total cell viability was measured for each cancer cell line using an Adenosine TriPhosphate (“ATP”) assay, and more specifically an ATP-based luminescence assay (i.e., CellTiter Glo). Each cancer drug was screened at multiple concentrations ranging from one nanomolar (nM) to ten micromolar (UM) in order to generate a dose-response curve and calculate a drug response score (“DRS”) for each cancer cell line. The DRS was calculated as a continuous function of multiple parameters of the non-linear dose-response curve, including the slope at the half-maximal effective concentration (also called “EC50”) and the top and bottom asymptotes of the dose-response curve. […] After total cell viability was measured and DRS was calculated, the DRS of each cancer cell line in the pool was deconvolved for each cancer drug.
(§4) DRS for these anchor cell lines are bolded and italicized. Anchors can be identified based on frequency of the cell lines in pools with high DRS versus low DRS. At a high level, an anchor is predicted to be the cell line with the lowest individual DRS. In order to deconvolute individual cell line DRS values from pool DRS values, the anchor can start with an assumed DRS value of zero. Each pool can then be expressed as a polynomial of variables (cell lines in the pool) and constants (DRS value of the pool). The DRS value of each cell line can then be solved for using the anchor value and overlapping polynomial expressions. When multiple values are calculated for the final target solved from the polynomials, then the anchor has a non-zero value that can be determined based on the difference in the calculated value of the final target.
(§5) Each pool represented a co-culture of three cell lines (“Target Compression”).

[2] = tested on: co-culture of three cancer cell lines; test: Cell viability (CellTiter Glo) of compressed target pools, co-cultures of three cell lines (Target Compression); format: cell-based
Description: as §3, §5

[3] = tested on: pooled samples of three cancer cell lines; test: Cell viability (CellTiter Glo) of compressed pooled samples of three individually cultured cell lines (Sample Compression); format: cell-based
Description: as §3
A benefit of the compression methodology is the ability to compress members of a library into pools for co-culture screens or compress individual cell cultures into pooled samples for measurement. For example, leukemia cell lines can interact in co-cultures through their immune receptors, which may result in cell activation, cytokine production, and other effects that may impact drug sensitivity and resistance. […] Instead of creating compressed target cells in pooled co-cultures, compression was instead used to enable individual cultures of each cell line, with pooled measurements to reduce reagents and instrument time. With individual cultures and sample compression, it was possible to accurately deconvolute DRS for each drug on each cell line, as shown in Table IV.

[4] = tested on: library of cancer cell lines; test: Hit profile of cancer drugs across library of cancer cell lines (cell viability); format: cell-based; conditions: across cancer cell lines screened individually
Description: Total cell viability was measured for each cancer cell line using an Adenosine TriPhosphate (“ATP”) assay, and more specifically an ATP-based luminescence assay (i.e., CellTiter Glo). Each cancer drug was screened at multiple concentrations ranging from one nanomolar (nM) to ten micromolar (UM) in order to generate a dose-response curve and calculate a drug response score (“DRS”) for each cancer cell line. The DRS was calculated as a continuous function of multiple parameters of the non-linear dose-response curve, including the slope at the half-maximal effective concentration (also called “EC50”) and the top and bottom asymptotes of the dose-response curve. […]
Table I includes several examples of cancer drugs and their DRSs across each cancer cell line in the aforementioned experiment.

[5] = tested on: CCRF-CFM; test: ATP-based luminescence cell viability (CellTiter Glo), drug response score, CCRF-CFM; parameters: scale not given here; conditions: for DRS from deconvolution: Sample compression, 5 Pick 3 pools; for drug response score (DRS): screened individually (Compress: None)
[6] = tested on: JURKAT; test: ATP-based luminescence cell viability (CellTiter Glo), drug response score, JURKAT; conditions: Target compression
Text: as §1, §2, §3, §4, §5

[7] = tested on: MOLT-4; test: ATP-based luminescence cell viability (CellTiter Glo), drug response score, MOLT-4; conditions: MOLT-4, screened individually (Compress: None)
Text: as §1, §2
Total cell viability was measured for each cancer cell line using an Adenosine TriPhosphate (“ATP”) assay, and more specifically an ATP-based luminescence assay (i.e., CellTiter Glo). […] The DRS was calculated as a continuous function of multiple parameters of the non-linear dose-response curve, including the slope at the half-maximal effective concentration (also called “EC50”) and the top and bottom asymptotes of the dose-response curve. […] After total cell viability was measured and DRS was calculated, the DRS of each cancer cell line in the pool was deconvolved for each cancer drug.
DRS for these anchor cell lines are bolded and italicized. […] Each pool can then be expressed as a polynomial of variables (cell lines in the pool) and constants (DRS value of the pool). […] When multiple values are calculated for the final target solved from the polynomials, then the anchor has a non-zero value that can be determined based on the difference in the calculated value of the final target. […]

[8] = 5 Pick 3, Pool 1 (REH, SUP-B15, CCRF-CFM)
[9] = 5 Pick 3, Pool 2 (SUP-B15, CCRF-HSB2, MOLT-4)
[10] = 5 Pick 3, Pool 3 (SUP-B15, CCRF-CFM, CCRF-HSB2)
[11] = 5 Pick 3, Pool 4 (REH, CCRF-CFM, MOLT-4)
[12] = 5 Pick 3, Pool 5 (REH, CCRF-HSB2, MOLT-4)
[13] = 6 Pick 3, Pool 1 (REH, CCRF-CFM, MOLT-4)
[14] = 6 Pick 3, Pool 2 (REH, CCRF-HSB2, MOLT-4)
[15] = 6 Pick 3, Pool 3 (REH, CCRF-CFM, JURKAT)
[16] = 6 Pick 3, Pool 4 (SUP-B15, CCRF-HSB2, JURKAT)
[17] = 6 Pick 3, Pool 5 (SUP-B15, CCRF-CFM, JURKAT)
[18] = 6 Pick 3, Pool 6 (SUP-B15, CCRF-HSB2, MOLT-4)
[19] = 7 Pick 3, Pool 1 (SUP-B15, CCRF-CFM, JURKAT)
[20] = 7 Pick 3, Pool 2 (SUP-B15, CCRF-HSB2, NALM-6)
[21] = 7 Pick 3, Pool 3 (SUP-B15, CCRF-CFM, NALM-6)
[22] = 7 Pick 3, Pool 4 (REH, CCRF-HSB2, JURKAT)
[23] = 7 Pick 3, Pool 5 (REH, MOLT-4, NALM-6)
[24] = 7 Pick 3, Pool 6 (REH, MOLT-4, JURKAT)
[25] = 7 Pick 3, Pool 7 (CCRF-CFM, CCRF-HSB2, MOLT-4)

Row | Compound | DRS from deconvolution [1] | drug response score (DRS) [1] | DRS of pool [2, 8] | DRS of pool [2, 9] | DRS of pool [2, 10] | DRS of pool [2, 11] | DRS of pool [2, 12] | DRS of pool [2, 13] | DRS of pool [2, 14] | DRS of pool [2, 15] | DRS of pool [2, 16] | DRS of pool [2, 17] | DRS of pool [2, 18] | DRS of pool [2, 19] | DRS of pool [2, 20] | DRS of pool [2, 21] | DRS of pool [2, 25] | DRS of pool [3, 8] | DRS of pool [3, 9] | DRS of pool [3, 10] | also measured
1 | COc1c(OCCCN2CCOCC2)ccc2c1N=C(NC(=O)c1cnc(N)nc1)N1CCN=C21 [Copanlisib] | 13.74 | 13.14 | 10.53 | 6.47 | 8.68 | 13.21 | 10.79 | 12.63 | 9.99 | 9.72 | 6.40 | 6.40 | 6.47 | 6.55 | 7.58 | 10.22 | 10.65 | 10.47 | 6.63 | 8.39 | DRS of pool [2, 22]: 7.17; DRS of pool [2, 23]: 11.88; DRS of pool [2, 24]: 8.07; DRS of pool [3, 11]: 13.65; DRS of pool [3, 12]: 10.96; Hits (hit profile) [4]: Multiple; DRS from deconvolution [5]: 15.72; drug response score (DRS) [5]: 15.14; DRS from deconvolution ([6]; 6 Pick 3 pools): 0.00; DRS from deconvolution ([6]; 7 Pick 3 pools): 2.30; drug response score (DRS) [7]: 9.44
2 | N#Cc1ccnc(N2C(=O)CC[C@H]2C(=O)N(c2cncc(F)c2)[C@H](C(=O)NC2CC(F)(F)C2)c2ccccc2Cl)c1 [Ivosidenib] | 0.00 | 0.00 | 0.54 | 0.60 | 0.91 | 0.63 | 0.88 | 0.60 | 0.81 | 0.77 | 0.61 | 0.57 | 0.61 | 0.57 | 0.54 | 0.34 | 0.95 | 0.52 | 0.55 | 0.82 | DRS of pool [2, 22]: 0.98; DRS of pool [2, 23]: 0.27; DRS of pool [2, 24]: 0.51; DRS of pool [3, 11]: 0.51; DRS of pool [3, 12]: 0.74; Hits (hit profile) [4]: None; DRS from deconvolution [5]: 0.99; drug response score (DRS) [5]: 1.00; DRS from deconvolution ([6]; 6 Pick 3 pools): 0.84; DRS from deconvolution ([6]; 7 Pick 3 pools): 0.70; drug response score (DRS) [7]: 0.20
3 | Cc1[nH]c2ccccc2c1CCNCc1ccc(/C=C/C(=O)NO)cc1 [Panobinostat] | 15.85 | 16.30 | 17.85 | 18.46 | 20.02 | 15.81 | 16.48 | 15.05 | 15.25 | 14.41 | 18.23 | 17.93 | 18.22 | 17.85 | 18.41 | 18.84 | 16.92 | 18.56 | 19.17 | 20.34 | DRS of pool [3, 11]: 14.93; DRS of pool [3, 12]: 15.87; Hits (hit profile) [4]: All; DRS from deconvolution [5]: 18.07; drug response score (DRS) [5]: 17.50; DRS from deconvolution ([6]; 6 Pick 3 pools): 14.37; DRS from deconvolution ([6]; 7 Pick 3 pools): 13.23; drug response score (DRS) [7]: 15.10
4 | CC1(C)CCC(CN2CCN(c3ccc(C(=O)NS(=O)(=O)c4ccc(NCC5CCOCC5)c([N+](=O)[O-])c4)c(Oc4cnc5[nH]ccc5c4)c3)CC2)=C(c2ccc(Cl)cc2)C1 [Venetoclax] | 9.54 | 7.30 | 14.50 | 13.53 | 13.46 | 2.70 | 2.43 | 2.60 | 2.26 | 1.57 | 13.22 | 12.95 | 13.01 | 12.97 | 14.37 | 15.70 | 1.35 | 13.99 | 13.60 | 12.57 | DRS of pool [2, 22]: 1.25; DRS of pool [2, 23]: 4.62; DRS of pool [2, 24]: 2.25; DRS of pool [3, 11]: 2.91; DRS of pool [3, 12]: 2.41; Hits (hit profile) [4]: One; DRS from deconvolution [5]: 0.50; drug response score (DRS) [5]: 1.10; DRS from deconvolution ([6]; 6 Pick 3 pools): 0.00; DRS from deconvolution ([6]; 7 Pick 3 pools): 1.88; drug response score (DRS) [7]: 2.90
